Literature values, collected in patent US12168000B2, “Methods of treating pain” (Scilex Holding Company, priority 2020, dated 2024).

Experiments:
[1] = upon oral administration
[2] = hydrophobic and highly permeable drug

Compound: Cc1ccc(-c2cc(C(F)(F)F)nn2-c2ccc(S(N)(=O)=O)cc2)cc1 [Celecoxib, 4-[5-(4-methylphenyl)-3-(trifluoromethyl)-1H-pyrazol-1-yl] benzenesulfonamide]
- time for peak plasma concentrations [1]: approximately 3.0 hours
- class of the biopharmaceutics classification system [2]: class II
